Measured values taken from ChEMBL document CHEMBL1201862, “PubChem BioAssay data set” (2004).
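48-hour exposure; five concentrations; linearly interpolated endpoints. GI50: concentration for 50% inhibition of growth.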 Activity calls are given as the source filed them. Cut-off read from the data, not from the text of the source: active = GI50 up to about 1.1 µM and inactive = higher.

Legend:
Assay in all cases: NCI-60 cell line screen, 48 h
HCT-116 = test system: HCT-116
T47D = test system: T47D
SW-620 = test system: SW-620
CAKI-1 = test system: CAKI-1
OVCAR-8 = test system: OVCAR-8
NCI-H460 = test system: NCI-H460
SF-268 = test system: SF-268
SF-539 = test system: SF-539
NCI-H226 = test system: NCI-H226
IGROV-1 = test system: IGROV-1
786-0 = test system: 786-0
MDA-MB-435 = test system: MDA-MB-435
PC-3 = test system: PC-3
Hs-578T = test system: Hs-578T
SK-MEL-2 = test system: SK-MEL-2
RXF 393 = test system: RXF 393
HCT-15 = test system: HCT-15
Malme-3M = test system: Malme-3M
BT-549 = test system: BT-549
TK-10 = test system: TK-10

Row | Structure (SMILES) | GI50 (HCT-116) | GI50 (T47D) | GI50 (SW-620) | GI50 (CAKI-1) | GI50 (OVCAR-8) | GI50 (NCI-H460) | GI50 (SF-268) | GI50 (SF-539) | GI50 (NCI-H226) | GI50 (IGROV-1) | GI50 (786-0) | GI50 (MDA-MB-435) | GI50 (PC-3) | GI50 (Hs-578T) | GI50 (SK-MEL-2) | GI50 (RXF 393) | GI50 (HCT-15) | GI50 (Malme-3M) | GI50 (BT-549) | GI50 (TK-10)
1 | CC(=O)Nc1cc2nc3n(c2cc1C)CCC3OC(C)=O (configuration not stated) | > 100 µM (inactive) | > 100 µM (inactive) | > 100 µM (inactive) | > 100 µM (inactive) | > 100 µM (inactive) | > 100 µM (inactive) | > 100 µM (inactive) | > 100 µM (inactive) | > 100 µM (inactive) | > 100 µM (inactive) | > 100 µM (inactive) | > 100 µM (inactive) | > 100 µM (inactive) | > 100 µM (inactive) | > 100 µM (inactive) | > 100 µM (inactive) | > 100 µM | > 100 µM (inactive) | > 100 µM (inactive) | –
2 | COc1ccc(C(=O)c2sc(Nc3ccccc3)nc2N)cc1 | – | > 100 µM (inactive) | 2.69 µM (inactive) | – | 29 µM (inactive) | > 100 µM (inactive) | 28.4 µM (inactive) | 14.3 µM (inactive) | > 100 µM (inactive) | 14.3 µM (inactive) | 13.1 µM (inactive) | 1.36 µM (inactive) | > 72.8 µM (inactive) | 23.3 µM (inactive) | 4.88 µM (inactive) | 13.4 µM (inactive) | 3.84 µM | > 100 µM (inactive) | > 100 µM (inactive) | > 55.7 µM (inactive)
3 | Cc1ccc(C)n1-n1c(Cc2ccc(Cl)cc2)n[nH]c1=O | 53.3 µM (inactive) | 39.9 µM (inactive) | > 100 µM (inactive) | 90.6 µM (inactive) | 77.4 µM (inactive) | > 100 µM (inactive) | > 100 µM (inactive) | – | 84.7 µM (inactive) | > 100 µM (inactive) | > 100 µM (inactive) | > 100 µM (inactive) | 39.2 µM (inactive) | > 100 µM (inactive) | 31 µM (inactive) | 59.3 µM (inactive) | > 100 µM | 92.5 µM (inactive) | 71.1 µM (inactive) | > 100 µM (inactive)
4 | CC(/C=N/N=C1NCCCN1)=N\N=C1NCCCN1 | > 100 µM (inactive) | > 100 µM (inactive) | > 100 µM (inactive) | > 100 µM (inactive) | > 100 µM (inactive) | > 100 µM (inactive) | > 100 µM (inactive) | > 100 µM (inactive) | > 100 µM (inactive) | > 100 µM (inactive) | > 100 µM (inactive) | > 100 µM (inactive) | > 100 µM (inactive) | > 100 µM (inactive) | – | > 100 µM (inactive) | > 100 µM | > 100 µM (inactive) | > 100 µM (inactive) | > 100 µM (inactive)
5 | CC1(C)CC(=O)C(=CNc2nc(-c3cccc([N+](=O)[O-])c3)cs2)C(=O)C1 | 14.9 µM (inactive) | 18.1 µM (inactive) | 11.9 µM (inactive) | 11.3 µM (inactive) | 23.7 µM (inactive) | 14.7 µM (inactive) | 15 µM (inactive) | 20.8 µM (inactive) | 15.3 µM (inactive) | 17.6 µM (inactive) | 15.1 µM (inactive) | 21.4 µM (inactive) | 24.8 µM (inactive) | 18.9 µM (inactive) | 55.8 µM (inactive) | 21.7 µM (inactive) | 11.6 µM | – | 18.7 µM (inactive) | 35.8 µM (inactive)
6 | CCCC(=O)N/S(=N/S(=O)(=O)c1ccc(Cl)cc1)C(Cl)(Cl)Cl (configuration not stated) | > 100 µM (inactive) | > 100 µM (inactive) | > 100 µM (inactive) | – | > 100 µM (inactive) | > 100 µM (inactive) | > 100 µM (inactive) | > 100 µM (inactive) | > 100 µM (inactive) | > 100 µM (inactive) | > 100 µM (inactive) | > 100 µM (inactive) | > 100 µM (inactive) | > 100 µM (inactive) | 16.5 µM (inactive) | > 100 µM (inactive) | > 100 µM | > 100 µM (inactive) | > 100 µM (inactive) | > 100 µM (inactive)
7 | N#Cc1[nH]c(=O)n(-c2ccc(Cl)cc2)c1N | > 10 µM (inactive) | > 10 µM (inactive) | – | 0.00637 µM (active) | > 10 µM (inactive) | > 10 µM (inactive) | > 10 µM (inactive) | > 10 µM (inactive) | > 10 µM (inactive) | > 10 µM (inactive) | > 10 µM (inactive) | > 10 µM (inactive) | > 10 µM (inactive) | > 10 µM (inactive) | > 10 µM (inactive) | > 10 µM (inactive) | > 10 µM | 8.79 µM (inactive) | > 10 µM (inactive) | > 10 µM (inactive)
